The record followed here is ChEMBL document CHEMBL5385945, “An ascidian Polycarpa aurata-derived pan-inhibitor against coronaviruses targeting Mpro” (Bioorg Med Chem Lett, 2024).

Series [1] deals with Replicase polyprotein 1ab (Severe acute respiratory syndrome coronavirus 2) (UniProt P0DTD1). Kind of series: Inhibition of SARS-CoV-2 Main protease at 2 uM relative to control.
The target of series [2] is Replicase polyprotein 1ab (Severe acute respiratory syndrome coronavirus 2, UniProt P0DTD1). Kind of series: (§1) Inhibition of SARS-CoV-2 Main protease.
Series [3] in a line: Selectivity ratio of CC50 for cytotoxicity against African green monkey Vero E6 cells to EC50 for antiviral activity against SARS-CoV-2 infected in African green monkey Vero E6 cells. The series is classed as toxicity, cell-based, Vero C1008. The following applies: read-out: Ratio CC50/EC50.
Another series relates to SARS-CoV-2. Kind of series: Antiviral activity against SARS-CoV-2 infected in African green monkey Vero E6 cells assessed as inhibition of viral replication. The following applies: Severe acute respiratory syndrome coronavirus 2, Vero C1008. The series is classed as functional, organism-based.
The nature of series [4]: Cytotoxicity against African green monkey Vero E6 cells assessed as reduction of cell viability. The series is classed as toxicity, cell-based, Vero C1008. The following applies: chlorocebus sabaeus.
The subject of series [5] is Porcine epidemic diarrhea virus. Kind of series: Antiviral activity against Porcine epidemic diarrhea virus infected in African green monkey Vero E6 cells assessed as inhibition of viral replication. The series is classed as functional, organism-based. The following applies: Vero C1008.
The target in series [6] is Replicase polyprotein 1ab (Severe acute respiratory syndrome coronavirus 2) (UniProt P0DTD1). Described as §1.
The nature of series [7]: Inhibition of Porcine epidemic diarrhea virus Main protease.

By inhibition is commonly meant the percentage by which the read-out fell short of the control. For orientation: IC50 means the concentration that gives 50% inhibition. The EC50 is the concentration giving half of the maximal effect. By CC50 is commonly meant the concentration that lowers cell viability or growth by half.

Molecule `CC(C)=CC[C@@H](OC(=O)CC(C)(C)O)C1=CC(=O)c2c(O)ccc(O)c2C1=O` [BETA-HYDROXYISOVALERYLSHIKONIN] yielded an inhibition in series [1] of over 50%. The IC50 in series [2] stood at 1020 nM.

Molecule `CC(=O)O[C@H](CC=C(C)C)C1=CC(=O)c2c(O)ccc(O)c2C1=O` [ACETYLSHIKONIN] yielded an inhibition in series [1] of over 50%. The molecule further displayed an IC50 in series [2] of 350 nM.

`COc1ccc(-c2nc(N)n(C)c2SSc2c(-c3ccc(OC)cc3)nc(N)n2C)cc1`: the selectivity ratio in series [3] was over 10. Also, the figures for the inhibition in series [1] and in series [6] were over 50% and “Dose-Dependent Effect”, respectively. In addition, the EC50 in the series on SARS-CoV-2 was 4090 nM; in series [5], 5680 nM. The half-maximal cytotoxic concentration (CC50) in series [4] came out at 50200 nM. Besides, the results for the IC50 in series [2] and in series [7] were 30 nM and 120 nM, respectively.
